Like-named read-outs stand apart in the source and are kept apart here.
Key:
L929 cells = test: TNF-α-induced cytotoxicity in L929 cells (MTT assay); format: cell-based; details: Mus musculus; for inhibition at 3 µM / inhibition at 10 µM / inhibition at 30 µM / inhibition at 1 µM: read-out: Inhibition (%) of TNF-α-induced cytotoxicity; for IC50: L929 cells, read-out: IC50, inhibition of TNF-α-induced decrease in cell viability
Description: The effects of the limonoids (1–17) on the sensitivity of hepatocytes to TNF-α were assessed by measuring TNF-α-induced decreases in the viability of L929 cells, a TNF-α-sensitive cell line, by using the MTT assay. In the absence of a test sample, the cells incubated with 1 ng/mL TNF-α for 44 h were compared with those not incubated with TNF-α.
Assay for the TNF-α-induced cytotoxicity in L929 cells was performed as described previously. Silybin was used as a reference compound [36].

[1] = test system: primary cultured mouse hepatocytes; test: D-GalN-induced cytotoxicity in primary cultured mouse hepatocytes (MTT assay); details: Hepatocyte, read-out: Inhibition (%) of D-GalN-induced cytotoxicity
Description: Assay for the D-GalN-induced cytotoxicity in primary cultured mouse hepatocytes was performed as described previously [33, 35, 36].

[2] = Cell viability of LPS-treated mouse peritoneal macrophages (MTT assay); format: cell-based
[3] = test system: LPS-activated NO production in mouse peritoneal macrophages; test: LPS-induced NO production in mouse peritoneal macrophages; format: cell-based; details: Peritoneal macrophage; for inhibition at 3 µM / inhibition at 10 µM / inhibition at 30 µM / inhibition at 100 µM: read-out: Inhibition (%) of LPS-activated NO production; for IC50: read-out: IC50, inhibition of LPS-activated NO production
Description: The effects of limonoids (1–17) on NO production were examined to provide an estimation of macrophage activation levels in LPS-treated mouse peritoneal macrophages.
Assay for NO production in TGC-induced mouse peritoneal macrophages was performed as described previously. N^G-Monomethyl-L-arginine (L-NMMA) and caffeic acid phenethyl ester (CAPE) were used as reference compounds [33, 36].

[4] = 3 µM, mean ± S.E.M. (n = 4), read-out: cell viability (%) in MTT assay (values in parentheses) (converted)
[5] = 10 µM, mean ± S.E.M. (n = 4), read-out: cell viability (%) in MTT assay (values in parentheses) (converted)
[6] = 30 µM, mean ± S.E.M. (n = 4), read-out: cell viability (%) in MTT assay (values in parentheses) (converted)
[7] = 100 µM, mean ± S.E.M. (n = 4), # = cytotoxic effects were observed, read-out: cell viability (%) in MTT assay (values in parentheses) (converted)
[8] = Mus musculus, 3 µM, mean ± S.E.M. (n = 4)
[9] = Mus musculus, 10 µM, mean ± S.E.M. (n = 4)
[10] = Mus musculus, 30 µM, mean ± S.E.M. (n = 4)
[11] = Mus musculus, 100 µM, mean ± S.E.M. (n = 4)
[12] = L929, 3 µM, 1 ng/mL TNF-α, 44 h, mean ± S.E.M. (n = 4)
[13] = L929, 10 µM, 1 ng/mL TNF-α, 44 h, mean ± S.E.M. (n = 4)
[14] = L929, 30 µM, 1 ng/mL TNF-α, 44 h, mean ± S.E.M. (n = 4)
[15] = LPS-treated TGC-induced mouse peritoneal macrophages, 3 µM, mean ± S.E.M. (n = 4), read-out: cell viability (%) in MTT assay (values in parentheses) (converted)
[16] = LPS-treated TGC-induced mouse peritoneal macrophages, 10 µM, mean ± S.E.M. (n = 4), read-out: cell viability (%) in MTT assay (values in parentheses) (converted)
[17] = LPS-treated TGC-induced mouse peritoneal macrophages, 30 µM, mean ± S.E.M. (n = 4), read-out: cell viability (%) in MTT assay (values in parentheses) (converted)
[18] = LPS-treated TGC-induced mouse peritoneal macrophages, 100 µM, mean ± S.E.M. (n = 4), # = cytotoxic effects were observed, read-out: cell viability (%) in MTT assay (values in parentheses) (converted)
[19] = L929, 1 µM, 1 ng/mL TNF-α, 44 h, mean ± S.E.M. (n = 4)

Row | Compound | inhibition at 3 µM [1] | inhibition at 10 µM [1] | inhibition at 30 µM [1] | inhibition at 100 µM [1] | inhibition at 3 µM [3, 8] | inhibition at 10 µM [3, 9] | inhibition at 30 µM [3, 10] | inhibition at 100 µM [3, 11] | inhibition at 3 µM (L929 cells; [12]) | inhibition at 10 µM (L929 cells; [13]) | inhibition at 30 µM (L929 cells; [14]) | viability at 3 µM [2, 15] | viability at 10 µM [2, 16] | viability at 30 µM [2, 17] | viability at 100 µM [2, 18] | IC50 ([3]; Mus musculus) | inhibition at 3 µM ([3]; Mus musculus) | inhibition at 10 µM ([3]; Mus musculus) | inhibition at 30 µM ([3]; Mus musculus) | inhibition at 100 µM ([3]; Mus musculus) | also measured
1 | COC(=O)C(OC(C)=O)C1C2(C)CC34OC5(C)OC6(C7CC(=O)OC(c8ccoc8)C7(C)C(OC(C)=O)C(O)C6(O5)C13C)C(OC(=O)C(C)C)C4(O)C2OC(C)=O (stereo not drawn) [compound 15, Carapanolide O] | 7.5 ± 3.9% | -5.3 ± 5.6% | -5.2 ± 3.9% | -2.1 ± 1.7% | -2.5 ± 5.4% | 14.7 ± 8.2% | 6.9 ± 5% | 102 ± 3.2% |  |  |  |  |  |  |  |  |  |  |  |  | inhibition at 3 µM (L929 cells; L929, 44 h): 6.3 ± 4.3%; inhibition at 10 µM (L929 cells; L929, 44 h): 1 ± 6.4%; inhibition at 30 µM (L929 cells; L929, 44 h): 1.5 ± 4.1%; viability at 3 µM [2, 4]: 104%; viability at 10 µM [2, 5]: 108%; viability at 30 µM [2, 6]: 107%; viability at 100 µM [2, 7]: 109%; IC50 ([3]; mouse peritoneal macrophages): 46 µM
2 | CCC(=O)OC1C2(O)C(OC(C)=O)C3(C)CC24OC2(C)OC15C1CC(=O)OC(c6ccoc6)C1(C)C(OC(C)=O)CC5(O2)C4(C)C3C(OC(C)=O)C(=O)OC (stereo not drawn) [compound 14, Carapanolide Q] | 2.7 ± 1.9% | -3.5 ± 2.9% | -2.5 ± 2.1% | -6.2 ± 1.7% |  |  |  |  | 8.6 ± 4.4% | 1.3 ± 4.2% | 9.2 ± 2.5% | 99.8% | 96.3% | 95.5% | 116% | 38 µM | 1.9 ± 0.7% | 14.4 ± 2.2% | 44.3 ± 1.1% | 75.3 ± 3.5% | 
3 | CCC(=O)OC1C2(OC(C)=O)C(OC(C)=O)C3(C)CC24OC2(C)OC15C(CC(=O)OC)C1(C)CC(c6occc6C1=O)C5(O2)C41COC(=O)CC31 (stereo not drawn) [compound 16, guianolide A] | 9.2 ± 4.2% | 11 ± 5.3% | 9.8 ± 2.8% | 23.5 ± 3.5% |  |  |  |  | -6.2 ± 5.2% | -4.5 ± 1.9% | -7.3 ± 3% | 96.9% | 102% | 98.7% | 106% | 77.9 µM | 1.9 ± 3.2% | 3.2 ± 1.4% | 12.7 ± 1.6% | 71.3 ± 3.2% | 
4 | CCC(C)C(=O)OC1C2(OC(C)=O)CC3(O)C4=CC(=O)OC(c5ccoc5)C4(C)CCC3C(C)(C2=O)C(CC(=O)OC)C1(C)C (stereo not drawn) [compound 10, Carapanolide C] | 8 ± 4.3% | 3.4 ± 4.2% | 6.7 ± 2.1% | -7.7 ± 4.4% | 4.2 ± 8.8% | 20.8 ± 5% | 20.2 ± 4.9% | 13.2 ± 1.9% | 14.2 ± 3.2% | 27.7 ± 4.3% | 54.5 ± 5.5% | 96% | 98.9% | 91.8% | 80% |  |  |  |  |  | inhibition at 1 µM (L929 cells; [19]): 4.9 ± 2.1%; IC50 (L929 cells; 1 ng/mL TNF-α, 44 h): 27 µM; IC50 ([3]; mouse peritoneal macrophages): > 100 µM
5 | CC(=O)O[C@@H]1C2C(C)(C)C(=O)C=C[C@]2(C)C2CC[C@@]3(C)[C@H](c4ccoc4)OC(=O)[C@H]4O[C@]43[C@]2(C)[C@@H]1O (stereo partly drawn) [compound 5, andirolide H] | -6.2 ± 2.6% | -9 ± 0.5% | -9.2 ± 0.8% | -0.6 ± 0.8% | 5.8 ± 6.1% | 63.9 ± 3% | 97.2 ± 0.9% | 99.7 ± 0.5% | -0.7 ± 1.2% | 7.6 ± 1.1% | 39.2 ± 1.7% | 99.8% | 104% | 109% | 4.9% |  |  |  |  |  | inhibition at 1 µM (L929 cells; [19]): -6.6 ± 3.6%; IC50 ([3]; mouse peritoneal macrophages): 9.4 µM
6 | CCC(=O)OC1C2(O)C(OC(C)=O)C3(C)CC24OC2(C)OC15C1CC(=O)OC(c6ccoc6)C1(C)C(OC(C)=O)C(O)C5(O2)C4(C)C3CC(=O)OC (stereo not drawn) [compound 13, Carapanolide M] | -7 ± 0.5% | -7.3 ± 0.7% | 1 ± 0.4% | -9.9 ± 1% |  |  |  |  | -1.5 ± 7.1% | 7 ± 4.4% | -5.1 ± 6.2% |  |  |  |  | 41.6 µM | -1.1 ± 2.7% | 3.2 ± 2.8% | 30.3 ± 3.1% | 85.1 ± 1.5% | viability at 3 µM [2, 4]: 99.2%; viability at 10 µM [2, 5]: 95.1%; viability at 30 µM [2, 6]: 94.2%; viability at 100 µM [2, 7]: 112%
7 | CC(=O)O[C@@H]1CC2C(C)(C)C(=O)C=C[C@]2(C)C2CC[C@]3(C)C(=CC(=O)[C@@]3(O)c3ccoc3)[C@@]21C (stereo partly drawn) [compound 9, 17β-hydroxyazadiradione] | 15.3 ± 2.3% | -4.1 ± 1.2% | -7.5 ± 1.4% | -7.5 ± 4% |  |  |  |  |  |  |  |  |  |  |  | 20.3 µM | -10.4 ± 6.8% | 9.4 ± 7.1% | 65.1 ± 4.5% | 97.4 ± 0.7% | inhibition at 1 µM (L929 cells; L929, 44 h): 14.1 ± 3.4%; inhibition at 3 µM (L929 cells; L929, 44 h): 23.9 ± 3.9%; inhibition at 10 µM (L929 cells; L929, 44 h): 64 ± 3.3%; inhibition at 30 µM (L929 cells; L929, 44 h): 91.3 ± 8.2%; IC50 (L929 cells; 1 ng/mL TNF-α, 44 h): 6.9 µM; viability at 3 µM [2]: 95.4%; viability at 10 µM [2]: 94.4 ± 14.1%; viability at 30 µM [2]: 94.8%; viability at 100 µM [2]: 84.8%
